# Data taken from patent US20100249172A1, “9-CHLORO NOSCAPINE AND ITS USE IN TREATING CANCERS, INCLUDING DRUG-RESISTANT CANCERS” (EMORY UNIVERSITY, priority 2007, published 2010).
# How the values were obtained:
# [1] = tested on: MCF-7 cells; assay: Immunofluorescence confocal microscopy of spindle architecture and nuclear morphology; type: cell-based, human; conditions: 25 μM, 0, 12, 24, 48 and 72 hours
# Method: Cells adhered to poly-L-lysine coated coverslips were treated with noscapine, 9-chloro-noscapine, and other halogenated analogs (9-F-nos, 9-Br-nos, and 9-I-nos) for 0, 12, 24, 48 and 72 hours. After treatment, cells were fixed with cold (−20° C.) methanol for 5 min and then washed with phosphate-buffered saline (PBS) for 5 min. Non-specific sites were blocked by incubating with 100 μl of 2% BSA in PBS at 37° C. for 15 min. A mouse monoclonal antibody against α-tubulin (DM1A, Sigma) was diluted 1:500 in 2% BSA/PBS (100 μl) and incubated with the coverslips for 2 hours at 37° C. Cells were then washed with 2% BSA/PBS for 10 min at room temperature before incubating with a 1:200 dilution of a fluorescein-isothiocyanate (FITC)-labeled goat anti-mouse IgG antibody (Jackson ImmunoResearch, Inc., West Grove, Pa.) at 37° C. for 1 hour. Coverslips were then rinsed with 2% BSA/PBS for 10 min and incubated with propidium iodide (0.5 μg/ml) for 15 min at room temperature before they were mounted with Aquamount (Lerner Laboratories, Pittsburgh, Pa.) containing 0.01% 1,4-diazobicyclo(2,2,2)octane (DABCO, Sigma). […]
# To test whether 9-chloro-noscapine induces spindle abnormalities prior to apoptotic cell death indicated by nuclear fragmentation of dying cells, the spindle architecture and nuclear morphology of MCF-7 cells treated with 9-chloronoscapine was evaluated using confocal microscopy (FIG. 4). […]
# [2] = tested on: MDA-MB-231 cells; assay: DAPI staining, cell morphology by fluorescence microscopy; type: cell-based, human; conditions: 25 μM, 72 hours
# Method: FIG. 2 is a series of photographs showing the effect of 9-chloro-nos on the morphology of cancer cells. Morphologic criteria for apoptotic cell death include, for example, chromatin condensation with aggregation along the nuclear envelope and plasma membrane blebbing followed by separation into small, apoptotic bodies. Panels show morphological evaluation of nuclei stained with DAPI from control cells (upper panels) and cells treated with 25 μM concentration of 9-Cl-nos for 72 hours (lower panels) using fluorescence microscopy. […] (Scale bar=15 μm).
# Cell morphology was evaluated by fluorescence microscopy following DAPI staining (Vectashield, Vector Labs, Inc., Burlingame, Calif.). MDA-MB-231 cells were grown on poly-L-lysine coated coverslips in 6-well plates and were treated with the halogenated analogs at 25 μM for 72 hours. After incubation, coverslips were fixed in cold methanol and washed with PBS, stained with DAPI, and mounted on slides. Images were captured using a BX60 microscope (Olympus, Tokyo, Japan) with an 8-bit camera (Dage-MTI, Michigan City, Ind.) and IP Lab software (Scanalytics, Fairfax, Va.). Apoptotic cells were identified by features characteristic of apoptosis (e.g. nuclear condensation, formation of membrane blebs and apoptotic bodies).
# [3] = tested on: CEM/VLB100 (vinblastine-resistant variant); assay: Inhibition of cell proliferation; type: cell-based, human
# [4] = tested on: CEM/VM-1-5 (teniposide-resistant variant); assay: Inhibition of cell proliferation; type: cell-based, human
# [5] = target: T1, tubulin; assay: Tubulin binding assay (fluorescence titration / quenching); parameters: species or system mammalian; conditions: 2 μM tubulin, 45 min at 37° C., pH 6.8; mean±SD, four experiments; read-out: dissociation constant (Kd) for binding to tubulin
# T1 construct: other: 2 μM tubulin, 45 min at 37° C., pH 6.8; mean±SD, four experim
# Method: Cell culture reagents were obtained from Mediatech, Cellgro. CEM, a human lymphoblastoid line was provided by Dr. William T. Beck (Cancer Center, University of Illinois at Chicago). MCF-7 cells were maintained in Dulbecco's Modification of Eagle's Medium 1× (DMEM) with 4.5 g/L glucose and L-glutamine (Mediatech, Cellgro) supplemented with 10% fetal bovine serum (Invitrogen, Carlsbad, Calif.) and 1% penicillin/streptomycin (Mediatech, Cellgro). MDA-MB-231 and CEM cells were grown in RPMI-1640 medium supplemented with 10% fetal bovine serum, and 1% penicillin/streptomycin. […]
# Fluorescence titration for determining the tubulin binding parameters was performed as described previously. […] The relative intrinsic fluorescence intensity of tubulin was then monitored in a JASCO FP-6500 spectrofluorometer (JASCO, Tokyo, Japan) using a cuvette of 0.3-cm path length, and the excitation wavelength was 295 nm. The fluorescence emission intensity of noscapine and its derivatives at this excitation wavelength was negligible. A 0.3-cm path-length cuvette was used to minimize the inner filter effects caused by the absorbance of these agents at higher concentration ranges. In addition, the inner filter effects were corrected using a formula F corrected ═F observed•antilog [(Aex+Aem)/2], where Aex is the absorbance at the excitation wavelength and Aem is the absorbance at the emission wavelength. […]
# [6] = tested on: 1A9 (ovarian cancer cells); assay: Inhibition of cell proliferation; type: cell-based
# [7] = tested on: caspase-3; assay: Apoptotic mechanism in cancer cells; type: cell-based
# [8] = tested on: 1A9/PTX22 (paclitaxel-resistant variant); assay: Inhibition of cell proliferation; type: cell-based
structure (smiles),measurement,setting,value
"COc1ccc2c(c1OC)C(=O)O[C@@H]2[C@H]1c2c(c(Cl)c3c(c2OC)OCO3)CCN1C [9-Cl-nos, (S)-3-((R)-9-chloro-4-methoxy-6-methyl-5,6,7,8-tetrahydro-[1,3]dioxolo[4,5-g]isoquinolin-5-yl)-6,7-dimethoxyisobenzofuran-1(3H)-one]",spindle abnormalities / mitotic arrest,[1],"mitotic arrest commencing as early as 12 hours, and maximizing at 24 hours"
same,"nuclear morphology, features of apoptotic cells",[2],"condensed chromosomes, numerous fragmented micronuclei, and apoptotic bodies are evident"
same,inhibition of cell proliferation (in words),[3],effectively inhibits cell proliferation
same,inhibition of cell proliferation (in words),[4],effectively inhibits cell proliferation
same,Kd,[5],40 ± 8 µM
same,inhibition of cell proliferation (in words),[6],effectively inhibits cell proliferation
same,caspase-3 activation,[7],"associated with activation of the key executioner cysteine protease, caspase-3"
same,inhibition of cell proliferation (in words),[8],effectively inhibits cell proliferation
